Test results: patent publication US10815230B2, “Casein kinase 1 delta inhibitor” (ELECTROPHORETICS LIMITED, priority 2015, dated 2020)

Key:
Assay in all cases: KINOMEscan binding assay
Conditions in all cases: read-out: % Ctrl @ 10000 nM
[1] = target: ABL1 (M351T) phosphorylated (Homo sapiens, UniProt P00519, M351T)
ABL1 non-phosphorylated = ABL1 non-phosphorylated (Homo sapiens, UniProt P00519)
ACVR1B = ACVR1B (Homo sapiens, UniProt P36896)
AKT3 = AKT3 (Homo sapiens, UniProt Q9Y243)
BMPR2 = BMPR2 (Homo sapiens, UniProt Q13873)
CDKL5 = CDKL5 (Homo sapiens, UniProt O76039)
CSK = CSK (Homo sapiens, UniProt P41240)
EGFR (L858R, T790M) = EGFR (L858R, T790M) (Homo sapiens, UniProt P00533, L858R/T790M)
EGFR (T790M) = EGFR (T790M) (Homo sapiens, UniProt P00533, T790M)
EPHA8 = EPHA8 (Homo sapiens, UniProt P29322)
FGFR1 = FGFR1 (Homo sapiens, UniProt P11362)
IKK-epsilon = IKK-epsilon (Homo sapiens, UniProt Q14164)
JNK2 = JNK2 (Homo sapiens, UniProt P45984)
JNK3 = JNK3 (Homo sapiens, UniProt P53779)
KIT (V559D, T670I) = KIT (V559D, T670I) (Homo sapiens, UniProt P10721, T670I/V559D)
LIMK1 = LIMK1 (Homo sapiens, UniProt P53667)
LYN = LYN (Homo sapiens, UniProt P07948)
MAP4K5 = target: T1, MAP4K5 (Homo sapiens, UniProt Q9Y4K4)
T1 construct: T7 phage fusion (most assays) or DNA label after HEK293 expression; purchased DiscoveRx (KINOMEscan, LeadHunter Discovery services); host or cells: T7 phage in E. coli (BL21-derived) or HEK293

MUSK = MUSK (Homo sapiens, UniProt O15146)
NEK4 = NEK4 (Homo sapiens, UniProt P51957)
NEK9 = NEK9 (Homo sapiens, UniProt Q8TD19)
p38-alpha = p38-alpha (Homo sapiens, UniProt Q16539)
p38-beta = p38-beta (Homo sapiens, UniProt Q15759)
PCTK3 = PCTK3 (Homo sapiens, UniProt Q07002)
PDGFRB = PDGFRB (Homo sapiens, UniProt P09619)
PIK3C2B = PIK3C2B (Homo sapiens, UniProt O00750)
PIP5K2B = PIP5K2B (Homo sapiens, UniProt P78356)
PLK2 = PLK2 (Homo sapiens, UniProt Q9NYY3)
PRKCQ = PRKCQ (Homo sapiens, UniProt Q04759)
QSK = QSK (Homo sapiens, UniProt Q9Y2K2)
RET (V804M) = RET (V804M) (Homo sapiens, UniProt P07949, V804M)
RIPK1 = RIPK1 (Homo sapiens, UniProt Q13546)
RIPK4 = RIPK4 (Homo sapiens, UniProt P57078)
[2] = target: RSK2 Kin.Dom.2-C-terminal (Homo sapiens, UniProt P51812)
SIK = SIK (Homo sapiens, UniProt P57059)
SRPK3 = SRPK3 (Homo sapiens, UniProt Q9UPE1)
TBK1 = TBK1 (Homo sapiens, UniProt Q9UHD2)
TESK1 = TESK1 (Homo sapiens, UniProt Q15569)
TLK1 = TLK1 (Homo sapiens, UniProt Q9UKI8)
TSSK1B = TSSK1B (Homo sapiens, UniProt Q9BXA7)
YES = YES (Homo sapiens, UniProt P07947)
Sequence of YES (P07947 whole entry): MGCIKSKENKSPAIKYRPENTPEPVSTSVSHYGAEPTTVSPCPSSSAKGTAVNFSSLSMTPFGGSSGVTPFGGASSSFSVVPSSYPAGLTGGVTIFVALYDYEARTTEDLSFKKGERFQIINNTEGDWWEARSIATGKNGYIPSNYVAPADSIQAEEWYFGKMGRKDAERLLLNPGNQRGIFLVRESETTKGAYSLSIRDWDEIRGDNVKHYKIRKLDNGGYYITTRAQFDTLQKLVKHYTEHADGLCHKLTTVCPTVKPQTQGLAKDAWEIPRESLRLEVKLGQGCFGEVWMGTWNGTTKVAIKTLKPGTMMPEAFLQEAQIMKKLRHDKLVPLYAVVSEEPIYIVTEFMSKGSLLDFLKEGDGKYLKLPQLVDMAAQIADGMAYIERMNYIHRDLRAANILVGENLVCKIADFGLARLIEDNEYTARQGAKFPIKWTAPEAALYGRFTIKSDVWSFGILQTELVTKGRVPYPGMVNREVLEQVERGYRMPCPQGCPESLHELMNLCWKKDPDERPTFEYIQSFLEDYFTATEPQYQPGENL

Sequence of EGFR (L858R, T790M) (P00533 25-1210 T790M/L858R): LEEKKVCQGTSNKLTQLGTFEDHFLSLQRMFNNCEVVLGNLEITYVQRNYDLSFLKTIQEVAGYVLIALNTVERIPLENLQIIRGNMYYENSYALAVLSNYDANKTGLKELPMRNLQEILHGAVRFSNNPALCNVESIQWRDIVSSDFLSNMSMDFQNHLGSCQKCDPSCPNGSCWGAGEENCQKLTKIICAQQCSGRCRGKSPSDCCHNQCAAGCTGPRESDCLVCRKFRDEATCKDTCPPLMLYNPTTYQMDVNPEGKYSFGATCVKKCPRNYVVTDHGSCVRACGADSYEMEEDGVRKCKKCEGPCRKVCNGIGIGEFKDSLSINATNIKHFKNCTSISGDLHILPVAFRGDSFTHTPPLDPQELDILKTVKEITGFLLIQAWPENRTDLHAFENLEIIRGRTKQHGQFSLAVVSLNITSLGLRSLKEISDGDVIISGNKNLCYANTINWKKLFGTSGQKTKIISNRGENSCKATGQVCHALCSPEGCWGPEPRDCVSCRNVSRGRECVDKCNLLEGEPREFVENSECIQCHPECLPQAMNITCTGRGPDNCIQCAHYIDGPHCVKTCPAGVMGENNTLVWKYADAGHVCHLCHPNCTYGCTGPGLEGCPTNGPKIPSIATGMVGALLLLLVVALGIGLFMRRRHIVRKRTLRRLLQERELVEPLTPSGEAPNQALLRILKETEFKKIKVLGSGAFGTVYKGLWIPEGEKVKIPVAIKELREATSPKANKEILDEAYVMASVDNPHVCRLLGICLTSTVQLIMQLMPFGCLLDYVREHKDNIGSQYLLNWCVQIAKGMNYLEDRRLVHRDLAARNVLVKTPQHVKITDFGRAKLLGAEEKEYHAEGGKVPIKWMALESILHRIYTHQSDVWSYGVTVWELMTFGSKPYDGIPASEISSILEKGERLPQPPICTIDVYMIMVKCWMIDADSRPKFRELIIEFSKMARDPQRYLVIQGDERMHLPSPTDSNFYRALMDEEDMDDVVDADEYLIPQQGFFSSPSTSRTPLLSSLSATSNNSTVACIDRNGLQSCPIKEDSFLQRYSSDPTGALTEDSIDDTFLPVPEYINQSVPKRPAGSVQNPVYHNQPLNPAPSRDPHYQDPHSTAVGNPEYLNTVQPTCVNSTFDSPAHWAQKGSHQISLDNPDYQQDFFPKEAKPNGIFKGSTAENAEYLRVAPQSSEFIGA
Sequence of RET (V804M) (P07949 29-1114 V804M): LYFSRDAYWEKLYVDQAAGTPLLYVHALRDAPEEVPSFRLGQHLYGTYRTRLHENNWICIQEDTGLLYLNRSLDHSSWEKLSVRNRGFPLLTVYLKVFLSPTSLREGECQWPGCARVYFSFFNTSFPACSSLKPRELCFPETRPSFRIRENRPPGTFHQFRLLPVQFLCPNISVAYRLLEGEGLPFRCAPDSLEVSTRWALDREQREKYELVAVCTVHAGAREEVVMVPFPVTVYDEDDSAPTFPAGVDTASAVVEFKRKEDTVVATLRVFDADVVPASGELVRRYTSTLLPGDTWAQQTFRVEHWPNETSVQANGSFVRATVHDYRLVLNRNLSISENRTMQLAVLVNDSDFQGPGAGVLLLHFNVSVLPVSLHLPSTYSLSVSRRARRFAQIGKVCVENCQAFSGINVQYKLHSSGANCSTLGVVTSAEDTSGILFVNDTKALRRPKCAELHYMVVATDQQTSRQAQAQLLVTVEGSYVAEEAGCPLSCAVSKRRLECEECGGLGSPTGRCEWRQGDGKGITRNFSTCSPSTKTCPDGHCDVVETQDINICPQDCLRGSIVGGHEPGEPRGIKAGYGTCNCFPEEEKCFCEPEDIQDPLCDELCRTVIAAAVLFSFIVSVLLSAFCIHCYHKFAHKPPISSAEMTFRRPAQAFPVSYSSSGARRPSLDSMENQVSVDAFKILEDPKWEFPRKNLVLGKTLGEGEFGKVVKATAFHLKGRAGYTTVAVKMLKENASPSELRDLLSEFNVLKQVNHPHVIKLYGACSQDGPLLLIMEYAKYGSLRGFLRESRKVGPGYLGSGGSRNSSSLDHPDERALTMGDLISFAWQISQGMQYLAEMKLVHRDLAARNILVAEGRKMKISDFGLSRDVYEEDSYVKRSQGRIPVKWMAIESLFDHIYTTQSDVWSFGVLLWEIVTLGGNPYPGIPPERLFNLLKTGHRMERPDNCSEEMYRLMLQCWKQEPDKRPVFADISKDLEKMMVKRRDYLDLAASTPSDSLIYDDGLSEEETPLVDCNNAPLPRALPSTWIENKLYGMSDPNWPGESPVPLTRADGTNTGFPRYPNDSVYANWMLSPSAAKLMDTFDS
Sequence of PDGFRB (P09619 33-1106): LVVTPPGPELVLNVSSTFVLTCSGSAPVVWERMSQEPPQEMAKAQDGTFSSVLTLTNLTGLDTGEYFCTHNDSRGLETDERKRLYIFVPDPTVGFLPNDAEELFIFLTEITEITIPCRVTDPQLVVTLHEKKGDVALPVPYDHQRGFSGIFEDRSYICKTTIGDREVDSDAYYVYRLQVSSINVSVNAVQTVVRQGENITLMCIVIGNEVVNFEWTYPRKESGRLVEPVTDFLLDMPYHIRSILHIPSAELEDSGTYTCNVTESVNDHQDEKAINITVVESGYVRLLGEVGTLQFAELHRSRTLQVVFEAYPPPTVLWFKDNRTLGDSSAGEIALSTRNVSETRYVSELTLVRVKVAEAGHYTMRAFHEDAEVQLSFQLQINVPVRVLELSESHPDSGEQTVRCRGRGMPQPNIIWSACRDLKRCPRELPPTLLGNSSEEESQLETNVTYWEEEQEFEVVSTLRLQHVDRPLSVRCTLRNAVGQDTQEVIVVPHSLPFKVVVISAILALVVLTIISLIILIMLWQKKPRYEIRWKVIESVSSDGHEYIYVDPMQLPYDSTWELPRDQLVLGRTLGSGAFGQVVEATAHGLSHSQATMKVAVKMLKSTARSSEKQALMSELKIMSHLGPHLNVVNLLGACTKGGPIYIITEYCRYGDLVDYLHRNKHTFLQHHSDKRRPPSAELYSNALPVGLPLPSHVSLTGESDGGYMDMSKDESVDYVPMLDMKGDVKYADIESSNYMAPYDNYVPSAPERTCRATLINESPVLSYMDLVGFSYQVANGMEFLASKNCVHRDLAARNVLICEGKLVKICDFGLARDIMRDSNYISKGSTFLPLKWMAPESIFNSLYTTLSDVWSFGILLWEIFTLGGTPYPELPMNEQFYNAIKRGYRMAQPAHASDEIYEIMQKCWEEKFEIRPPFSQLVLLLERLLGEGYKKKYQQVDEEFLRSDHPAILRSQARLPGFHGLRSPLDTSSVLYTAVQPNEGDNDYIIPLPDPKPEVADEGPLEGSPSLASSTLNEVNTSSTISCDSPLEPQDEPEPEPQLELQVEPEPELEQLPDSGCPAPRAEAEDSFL
Sequence of PCTK3 (Q07002 whole entry): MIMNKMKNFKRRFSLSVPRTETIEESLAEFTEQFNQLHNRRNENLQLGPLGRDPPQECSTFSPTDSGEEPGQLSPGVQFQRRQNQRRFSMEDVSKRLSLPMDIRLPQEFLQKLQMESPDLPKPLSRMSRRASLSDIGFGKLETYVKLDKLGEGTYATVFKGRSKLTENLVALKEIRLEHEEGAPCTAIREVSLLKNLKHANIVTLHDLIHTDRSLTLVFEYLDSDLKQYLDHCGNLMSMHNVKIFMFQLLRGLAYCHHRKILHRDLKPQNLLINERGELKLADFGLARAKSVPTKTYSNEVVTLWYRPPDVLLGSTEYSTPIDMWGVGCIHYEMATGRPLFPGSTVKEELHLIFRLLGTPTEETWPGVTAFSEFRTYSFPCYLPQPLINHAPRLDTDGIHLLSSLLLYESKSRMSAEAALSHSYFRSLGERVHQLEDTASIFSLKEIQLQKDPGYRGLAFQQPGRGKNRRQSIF
Sequence of JNK2 (P45984 whole entry): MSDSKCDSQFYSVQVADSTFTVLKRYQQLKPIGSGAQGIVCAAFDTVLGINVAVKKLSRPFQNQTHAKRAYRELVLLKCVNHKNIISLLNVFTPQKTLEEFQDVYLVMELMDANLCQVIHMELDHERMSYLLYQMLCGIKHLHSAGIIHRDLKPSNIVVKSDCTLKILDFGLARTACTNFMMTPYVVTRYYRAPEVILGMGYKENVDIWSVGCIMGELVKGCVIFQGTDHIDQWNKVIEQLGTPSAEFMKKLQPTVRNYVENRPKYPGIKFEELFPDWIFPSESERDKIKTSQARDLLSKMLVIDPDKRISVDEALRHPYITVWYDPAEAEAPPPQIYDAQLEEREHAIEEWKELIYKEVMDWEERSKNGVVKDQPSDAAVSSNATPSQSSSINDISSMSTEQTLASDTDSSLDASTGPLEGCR
Sequence of RSK2 Kin.Dom.2-C-terminal (P51812 422-679 limits assumed): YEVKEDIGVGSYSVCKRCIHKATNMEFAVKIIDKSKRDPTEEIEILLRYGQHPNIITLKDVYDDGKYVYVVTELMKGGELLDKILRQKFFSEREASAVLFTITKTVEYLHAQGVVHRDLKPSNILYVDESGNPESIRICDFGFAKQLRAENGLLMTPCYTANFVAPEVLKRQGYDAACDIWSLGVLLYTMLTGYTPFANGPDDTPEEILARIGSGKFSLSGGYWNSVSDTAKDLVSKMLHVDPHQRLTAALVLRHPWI

SMILES: Nc1ncc(-c2nc3ccccc3o2)c(-c2ccncc2)n1 [Comparative Compound 324, 5-(1,3-benzoxazol-2-yl)-4-(pyridine-4-yl)pyrimidin-2-amine]
- remaining binding at 10 µM [1]: 79%
- remaining binding at 10 µM (ABL1 non-phosphorylated): 81%
- remaining binding at 10 µM (ACVR1B): 100%
- remaining binding at 10 µM (AKT3): 100%
- remaining binding at 10 µM (BMPR2): 100%
- remaining binding at 10 µM (CDKL5): 97%
- remaining binding at 10 µM (CSK): 100%
- remaining binding at 10 µM (EGFR (L858R, T790M)): 51%
- remaining binding at 10 µM (EGFR (T790M)): 88%
- remaining binding at 10 µM (EPHA8): 94%
- remaining binding at 10 µM (FGFR1): 98%
- remaining binding at 10 µM (IKK-epsilon): 82%
- remaining binding at 10 µM (JNK2): 18%
- remaining binding at 10 µM (JNK3): 6%
- remaining binding at 10 µM (KIT (V559D, T670I)): 98%
- remaining binding at 10 µM (LIMK1): 100%
- remaining binding at 10 µM (LYN): 99%
- remaining binding at 10 µM (MAP4K5): 88%
- remaining binding at 10 µM (MUSK): 100%
- remaining binding at 10 µM (NEK4): 89%
- remaining binding at 10 µM (NEK9): 100%
- remaining binding at 10 µM (p38-alpha): 33%
- remaining binding at 10 µM (p38-beta): 100%
- remaining binding at 10 µM (PCTK3): 86%
- remaining binding at 10 µM (PDGFRB): 90%
- remaining binding at 10 µM (PIK3C2B): 83%
- remaining binding at 10 µM (PIP5K2B): 100%
- remaining binding at 10 µM (PLK2): 92%
- remaining binding at 10 µM (PRKCQ): 100%
- remaining binding at 10 µM (QSK): 99%
- remaining binding at 10 µM (RET (V804M)): 100%
- remaining binding at 10 µM (RIPK1): 100%
- remaining binding at 10 µM (RIPK4): 65%
- remaining binding at 10 µM [2]: 100%
- remaining binding at 10 µM (SIK): 100%
- remaining binding at 10 µM (SRPK3): 99%
- remaining binding at 10 µM (TBK1): 85%
- remaining binding at 10 µM (TESK1): 88%
- remaining binding at 10 µM (TLK1): 96%
- remaining binding at 10 µM (TSSK1B): 100%
- remaining binding at 10 µM (YES): 100%

SMILES: CNc1c(C(N)=O)c2ccccn2c1C(=O)c1ccc(F)cc1 [Compound A, 2-methyl-amino-3-[(4-fluorophenyl)carbonyl]indolizine-1-carboxamide]
- remaining binding at 10 µM [1]: 49%
- remaining binding at 10 µM (ABL1 non-phosphorylated): 42%
- remaining binding at 10 µM (ACVR1B): 100%
- remaining binding at 10 µM (AKT3): 100%
- remaining binding at 10 µM (BMPR2): 88%
- remaining binding at 10 µM (CDKL5): 94%
- remaining binding at 10 µM (CSK): 91%
- remaining binding at 10 µM (EGFR (L858R, T790M)): 88%
- remaining binding at 10 µM (EGFR (T790M)): 65%
- remaining binding at 10 µM (EPHA8): 59%
- remaining binding at 10 µM (FGFR1): 72%
- remaining binding at 10 µM (IKK-epsilon): 74%
- remaining binding at 10 µM (JNK2): 45%
- remaining binding at 10 µM (JNK3): 48%
- remaining binding at 10 µM (KIT (V559D, T670I)): 99%
- remaining binding at 10 µM (LIMK1): 100%
- remaining binding at 10 µM (LYN): 54%
- remaining binding at 10 µM (MAP4K5): 62%
- remaining binding at 10 µM (MUSK): 96%
- remaining binding at 10 µM (NEK4): 96%
- remaining binding at 10 µM (NEK9): 100%
- remaining binding at 10 µM (p38-alpha): 6%
- remaining binding at 10 µM (p38-beta): 100%
- remaining binding at 10 µM (PCTK3): 84%
- remaining binding at 10 µM (PDGFRB): 45%
- remaining binding at 10 µM (PIK3C2B): 74%
- remaining binding at 10 µM (PIP5K2B): 100%
- remaining binding at 10 µM (PLK2): 71%
- remaining binding at 10 µM (PRKCQ): 88%
- remaining binding at 10 µM (QSK): 82%
- remaining binding at 10 µM (RET (V804M)): 100%
- remaining binding at 10 µM (RIPK1): 99%
- remaining binding at 10 µM (RIPK4): 78%
- remaining binding at 10 µM [2]: 43%
- remaining binding at 10 µM (SIK): 83%
- remaining binding at 10 µM (SRPK3): 92%
- remaining binding at 10 µM (TBK1): 74%
- remaining binding at 10 µM (TESK1): 90%
- remaining binding at 10 µM (TLK1): 87%
- remaining binding at 10 µM (TSSK1B): 100%
- remaining binding at 10 µM (YES): 78%
